Among the data in patent US10065950B2, “Substituted thiazoles as HIV integrase inhibitors” (Japan Tobacco Inc., priority 2010, dated 2018) are IC50 values, retold here.

By IC50 is commonly meant the midpoint of a concentration-inhibition curve.

The structures appear in SMILES notation.

The assay deals with HIV-1 pNL4-3 integrase (Human immunodeficiency virus type 1 group M subtype B (isolate NY5) (HIV-1), UniProt P12497). The assay can be described thus: Determination of enzyme (HIV integrase) inhibitory activity. The assay is classed as biochemical. The following applies: calculated from inhibition rate (fluorescence). The procedure, abridged:
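Full-length pNL4-3 integrase from E. coli (0.75 μM stock) reacted 60 min at 37° C with compound and biotinylated donor DNA bound to streptavidin plates, in MOPS buffer with 5 mM MgCl2 and 10% DMSO. Digoxigenin-labelled target DNA (25 nM stock) then added for 20 min; strand transfer read by peroxidase anti-digoxigenin fluorescence (Ex 325/Em 420 nm).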

For the compound `CCN(C)C(=O)[C@]1(C)Cn2cc(-c3nnc(Cc4ccc(F)cc4)s3)c(=O)c(O)c2C(=O)N1C(C)C` [Example 331], the 50% inhibitory concentration (IC50) was 0.0093 µM.
Turning to `CCN1C(=O)c2c(O)c(=O)c(-c3nnc(Cc4ccc(F)cc4)s3)cn2C[C@H]1[C@H](C)OC` [Example 332], the IC50 is 0.012 µM.
Regarding `CCN1C(=O)c2c(O)c(=O)c(-c3ncc(Cc4ccc(F)cc4)s3)cn2C[C@H]1[C@H](C)OC` [Example 333], the IC50 is 0.0075 µM.
In the case of `CO[C@@H](C)[C@@H]1Cn2cc(-c3nnc(Cc4ccc(F)cc4)s3)c(=O)c(O)c2C(=O)N1C(C)C` [Example 334], the IC50 was 0.0091 µM.
With `CN(C)C(=O)[C@@]1(C)CN(C)C(=O)c2c(O)c(=O)c(-c3nnc(Cc4ccc(F)cc4F)s3)cn21` [Example 335] the figure was 0.0098 µM; with `CN(C)C(=O)[C@@]1(C)CN(C)C(=O)c2c(O)c(=O)c(-c3ncc(Cc4ccc(F)cc4F)s3)cn21` [Example 336], 0.0072 µM; with `CCC(CC)N1C[C@H](COC)n2cc(-c3nnc(Cc4ccc(F)cc4)s3)c(=O)c(O)c2C1=O` [Example 337], 0.017 µM.
Regarding `CO[C@H](C)[C@@H]1CN(C(C)C)C(=O)c2c(O)c(=O)c(-c3nnc(Cc4ccc(F)cc4)s3)cn21` [Example 338], the IC50 is 0.0071 µM.
For `COC[C@H]1[C@@H](C)n2cc(-c3nnc(Cc4ccc(F)cc4)s3)c(=O)c(O)c2C(=O)N1C(C)C` [Example 353], the IC50 is 0.013 µM.
With `CC(C)N1C(=O)c2c(O)c(=O)c(-c3nnc(Cc4ccc(F)cc4)s3)cn2C[C@H]1CO` [Example 354] the figure was 0.008 µM; with `CCN1C(=O)c2c(O)c(=O)c(-c3nnc(Cc4ccc(F)cc4)s3)cn2CC1(C)C` [Example 355], 0.0066 µM.
With `COC[C@@H]1[C@H](C)N(C(C)C)C(=O)c2c(O)c(=O)c(-c3nnc(Cc4ccc(F)cc4)s3)cn21` [Example 356], the IC50 was 0.0089 µM.
With `CCCN1C[C@H](COCC)n2cc(-c3nnc(Cc4ccc(F)cc4)s3)c(=O)c(O)c2C1=O` [Example 357], the IC50 is 0.0073 µM.
As for `CC(C)N1C[C@H](Cn2cncn2)n2cc(-c3nnc(Cc4ccc(F)cc4)s3)c(=O)c(O)c2C1=O` [Example 358], the IC50 is 0.012 µM.
On to `CC(C)N1C[C@H](Cn2cnnn2)n2cc(-c3nnc(Cc4ccc(F)cc4)s3)c(=O)c(O)c2C1=O` [Example 359], for which the IC50 is 0.0048 µM.
The figure for `CC(C)N1C[C@H](CS(=O)(=O)C(C)(C)C)n2cc(-c3nnc(Cc4ccc(F)cc4)s3)c(=O)c(O)c2C1=O` [Example 360] is 0.011 µM.
As for `CCOC[C@H]1CN(C(C)(C)C)C(=O)c2c(O)c(=O)c(-c3nnc(Cc4ccc(F)cc4)s3)cn21` [Example 361], the IC50 is 0.015 µM.
Regarding `CCCCN1C[C@H](COCCOC)n2cc(-c3nnc(Cc4ccc(F)cc4)s3)c(=O)c(O)c2C1=O` [Example 362], the IC50 was 0.01 µM.
The figure for `CCCOC[C@H]1CN(C(C)C)C(=O)c2c(O)c(=O)c(-c3nnc(Cc4ccc(F)cc4)s3)cn21` [Example 363] is 0.0087 µM.
The figure for `CCCCOC[C@H]1CN(C(C)C)C(=O)c2c(O)c(=O)c(-c3nnc(Cc4ccc(F)cc4)s3)cn21` [Example 364] is 0.01 µM; for `CC(C)OC[C@H]1CN(C(C)C)C(=O)c2c(O)c(=O)c(-c3nnc(Cc4ccc(F)cc4)s3)cn21` [Example 365] it is 0.012 µM; for `CCC(OC)[C@H]1CN(C(C)C)C(=O)c2c(O)c(=O)c(-c3nnc(Cc4ccc(F)cc4)s3)cn21` (stereo partly drawn) [Example 382] it is 0.0087 µM.
With `CCC(OC)[C@H]1CN(C(C)C)C(=O)c2c(O)c(=O)c(-c3nnc(Cc4ccc(F)cc4)s3)cn21` (stereo partly drawn) [Example 383], the IC50 is 0.0079 µM.
The figure for `CO[C@@H](C)COC[C@H]1CN(C2CC2)C(=O)c2c(O)c(=O)c(-c3nnc(Cc4ccc(F)cc4)s3)cn21` [Example 384] is 0.012 µM.
For the compound `CO[C@@H](C)COC[C@H]1CN(C(C)C)C(=O)c2c(O)c(=O)c(-c3nnc(Cc4ccc(F)cc4)s3)cn21` [Example 385], the IC50 was 0.0082 µM.
As for `CO[C@H](C)[C@H]1CN(C(C)C)C(=O)c2c(O)c(=O)c(-c3ncc(Cc4ccc(F)cc4)s3)cn21` [Example 386], the IC50 was 0.015 µM.
For the compound `CO[C@H](C)[C@@H]1CN(C(C)C)C(=O)c2c(O)c(=O)c(-c3ncc(Cc4ccc(F)cc4)s3)cn21` [Example 387], the concentration for half-maximal inhibition (IC50) is 0.011 µM.
On to `CO[C@@H](C)[C@H]1CN(C(C)C)C(=O)c2c(O)c(=O)c(-c3ncc(Cc4ccc(F)cc4)s3)cn21` [Example 388], for which the IC50 is 0.0086 µM.
For the compound `CCO[C@H](CC)[C@H]1CN(C(C)C)C(=O)c2c(O)c(=O)c(-c3nnc(Cc4ccc(F)cc4)s3)cn21` [Example 389], the IC50 was 0.014 µM.
As to `COCCOC[C@@]1(C(=O)N(C)C)CN(C(C)C)C(=O)c2c(O)c(=O)c(-c3nnc(Cc4ccc(F)cc4)s3)cn21` [Example 391], the IC50 is 0.024 µM.
The figure for `CC[C@]1(C(=O)N2CCC2)CN(C(C)C)C(=O)c2c(O)c(=O)c(-c3nnc(Cc4ccc(F)cc4)s3)cn21` [Example 392] is 0.011 µM; for `CCNC(=O)[C@]1(COC)CN(C(C)C)C(=O)c2c(O)c(=O)c(-c3ncc(Cc4ccc(F)cc4)s3)cn21` [Example 393] it is 0.015 µM.
As to `CCNC(=O)[C@]1(COCCOC)CN(C(C)C)C(=O)c2c(O)c(=O)c(-c3ncc(Cc4ccc(F)cc4)s3)cn21` [Example 394], the IC50 is 0.014 µM.
For the compound `CCN1C(=O)c2c(O)c(=O)c(-c3nnc(Cc4ccc(F)cc4)s3)cn2C[C@@H]1[C@@H](C)OC` [Example 395], the IC50 was 0.01 µM.
For the compound `CCN(C)C(=O)[C@]1(COC)CN(C(C)C)C(=O)c2c(O)c(=O)c(-c3nnc(Cc4ccc(F)cc4)s3)cn21` [Example 396], the IC50 was 0.015 µM.
Take `CCN(C)C(=O)[C@]1(COCCOC)CN(C(C)C)C(=O)c2c(O)c(=O)c(-c3nnc(Cc4ccc(F)cc4)s3)cn21` [Example 397]: the IC50 was 0.019 µM.
